ChEMBL document CHEMBL1201862, “PubChem BioAssay data set” (2004)
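48-hour exposure; five concentrations; linearly interpolated endpoints. Here, GI50 denotes the concentration required for 50% inhibition of growth.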 The source made the active and inactive calls. Cut-off read from the data, not from the text of the source: active = GI50 up to about 1.1 µM and inactive = higher.

Legend:
Assay in all cases: NCI-60 cell line screen, 48 h
[1] = test system: COLO 205
[2] = test system: CCRF-CEM
[3] = test system: HCC 2998
[4] = test system: DMS-273
[5] = test system: RPMI-8226
[6] = test system: SR
[7] = test system: OVCAR-4
[8] = test system: M14
[9] = test system: K562
[10] = test system: SK-MEL-5
[11] = test system: RXF 393
[12] = test system: Malme-3M
[13] = test system: OVCAR-5
[14] = test system: SNB-75
[15] = test system: LOX IMVI
[16] = test system: SF-295

Measured: GI50

Nn1c(CCCl)nc2c(Br)cc(Br)cc2c1=O
inactive: [1] 23.9 µM | [2] 8.2 µM | [3] 40.2 µM | [4] 30.3 µM | [5] 24.4 µM | [6] 20.3 µM | [7] 19.1 µM | [8] 30.3 µM | [9] 13.2 µM | [10] 17.3 µM | [11] 36.1 µM | [12] > 69.5 µM | [13] 30.1 µM | [14] 27.8 µM | [15] 25.5 µM | [16] 31.7 µM

CN(C(=O)c1ccc(Cl)cc1)C(=S)N1CCN(c2ccccn2)CC1
inactive: [1] > 100 µM | [2] > 100 µM | [4] > 100 µM | [5] > 100 µM | [6] > 100 µM | [7] > 100 µM | [8] > 100 µM | [9] > 100 µM | [10] > 100 µM | [11] > 100 µM | [12] > 100 µM | [13] > 100 µM | [14] > 100 µM | [15] > 100 µM | [16] > 100 µM

Cc1ccc([N+](=O)[O-])cc1NC(=O)C(=O)Cc1nc2ccc(C(=O)c3ccccc3)cc2nc1O
inactive: [1] > 100 µM | [2] > 100 µM | [3] > 100 µM | [4] > 100 µM | [6] 60 µM | [7] > 100 µM | [8] > 100 µM | [10] > 100 µM | [11] > 100 µM | [12] > 100 µM | [14] 56.5 µM | [15] > 100 µM | [16] > 100 µM

Cn1c2ccccc2c2cc(-c3ccccc3)c3c(c21)C(=O)c1ccccc1C3=O
inactive: [1] 31.5 µM | [2] 5.19 µM | [3] 48.8 µM | [4] 17 µM | [5] 4.67 µM | [6] 4.79 µM | [7] 14.5 µM | [8] 14.3 µM | [9] 21.4 µM | [12] 22.3 µM | [14] 34.4 µM | [16] 21.5 µM

O=C(CCc1nnc(S)[nH]1)Nc1cc(Cl)c(Cl)cc1Cl
inactive: [1] > 100 µM | [2] > 100 µM | [3] > 100 µM | [4] > 100 µM | [5] > 100 µM | [7] > 100 µM | [8] > 100 µM | [9] > 100 µM | [10] > 100 µM | [11] > 100 µM | [12] > 100 µM | [13] > 100 µM | [14] 25.4 µM | [15] > 100 µM | [16] > 100 µM

CC1(C)OCN(c2ccc(S(N)(=O)=O)cc2)Cn2c1nc1ccccc12
inactive: [1] > 100 µM | [2] > 100 µM | [3] > 100 µM | [4] > 100 µM | [5] > 100 µM | [6] > 100 µM | [7] > 100 µM | [8] > 100 µM | [9] > 100 µM | [11] > 100 µM | [12] > 100 µM | [14] > 100 µM | [15] > 100 µM | [16] > 100 µM
